{
  "source": "patent US20150004144A1",
  "about": "“DIFFERENTIATION INTO BROWN ADIPOCYTES” (THE GENERAL HOSPITAL CORPORATION, priority 2011, published 2015)",
  "key": {"[1]": {"test_system": "hPSC-derived adipocytes", "assay": "Cellular OCR and ECAR (extracellular flux analyzer)", "format": "cell-based, human", "conditions": "all cell types; 5 μM antimycin A after oligomycin and CCCP", "quoted_text": "To further distinguish between white and brown adipocytes at a functional level, the characterization was extended to the mitochondrial function of our cells. […] Compounds were then injected that modulate mitochondrial function sequentially and the effect on OCR and ECAR was measured after the addition of each compound. Oligomycin was first administered to determine ATP turnover and the degree of proton leak. […] After the addition of the electron transport chain decoupler carbonyl cyanide m-chlorophenylhydrazone (CCCP), the maximal respiratory capacity was measured. […] Finally, antimycin was administered to inhibit the flux of electrons through complex III and prevent oxygen consumption by the cytochrome c oxidase in the mitochondria.\nMeasurement of cellular OCR and ECAR. Cells were plated in gelatin-coated XF24-well cell culture microplates (Seahorse Bioscience) and differentiated into adipocytes. Cells were incubated in prewarmed unbuffered DMEM medium (DMEM containing 2 mM GlutaMax, 1 mM sodium pyruvate, 1.85 g/l NaCl, and 25 mM glucose) for 1 hour. The oxygen consumption was measured by the XF24 Extracellular Flux Analyzer (Seahorse Biosciences). […] OCR and ECAR were determined by plotting the oxygen tension and acidification of the medium in the chamber as a function of time and normalized by protein concentration (pmol/min/mg and mpH/min/mg), respectively."}, "[2]": {"test_system": "hPSC-derived adipocytes", "assay": "Lipolysis assay (glycerol release)", "conditions": "PPARG2-programmed, differentiated ADSVCs and MPCs; ADSVCs P=0.01, MPCs P=0.002; n=3", "quoted_text": "Lipolysis assay. […] The culture media was collected for glycerol measurement using the Free Glycerol reagent (Sigma #F6428). Protein concentrations used to normalize glycerol content were measured using the Bradford protein assay (BioRad). Glycerol release was expressed in μg glycerol per mg total protein or the lowest value is set to 1."}, "[3]": {"test_system": "pAKT(S473)", "assay": "Western blot of insulin-induced AKT phosphorylation", "format": "cell-based, human", "conditions": "programmed white adipocytes, vs basal starved state", "procedure": "Finally, it was determined whether the programmed white adipocytes respond to insulin in a manner similar to mature primary white adipocytes. […] Insulin response was examined by assessing protein expression levels of AKT and phosphorylated AKT [pAKT(S473)] (FIG. 4D).\nWestern blot analysis. Western blot analysis was carried out using following antibodies: total AKT (Cell signaling #9272), phospho-Ser 473 AKT (Cell signaling #9271), Lamin A/C (Fisher/Millipore #3211)."}, "[4]": {"test_system": "BJ RiPS MPC derived adipocytes", "assay": "Glucose uptake assay ([3H]-2-deoxy-D-glucose)", "format": "cell-based, human", "conditions": "100 nM insulin 30 min; P=0.05 unprogrammed, P=0.0007 PPARG2-programmed cells", "procedure": "Glucose uptake assay. Adipocytes were serum-starved in 0.2% BSA DMEM overnight. Then, cells were incubated in KRH buffer (121 mM NaCl, 4.9 mM KCl, 1.2 mM MgSO4, 0.33 mM CaCl2, 12 mM HEPES, pH7.4) in the absence or presence of 100 nM insulin for 30 min at 37° C., followed by washing three times in KRH buffer. Glucose uptake was measured by incubating cells with 0.5 μCi/ml 2-deoxy-D-[3H] glucose (Perkin-Elmer) for 5 min at 37° C. After cold PBS washing three times, cells were lysed with 1% Triton X-100 solution and subjected to scintillation counting. Non-specific uptake was measured in the presence of 10 μM of cytochalasin B and subtracted from total uptake."}},
  "data": [
    {"compound": "antimycin", "values": [
      {"measurement": "OCR after antimycin", "setting": "[1]", "value": "dropped to post-oligomycin levels"}
    ]},
    {"compound": "CC(C)NCC(O)c1ccc(O)c(O)c1", "note": "(stereo not shown) [isoproterenol]", "values": [
      {"measurement": "release of glycerol after isoproterenol", "setting": "[2]", "value": "breakdown of triglycerides and release of glycerol"}
    ]},
    {"compound": "insulin: insulin (Sigma)", "values": [
      {"measurement": "pAKT(S473) after insulin", "setting": "[3]", "value": "robustly upregulated pAKT(S473)"},
      {"measurement": "glucose uptake after exposure to insulin", "setting": "[4]", "value": "significant increase in the glucose uptake"}
    ]}
  ]
}
